# Where a SMILES comes first, the peptide text is derived from it. [ ]: non-standard residue; d: D form. Orn(N5-OH,N5-Ac) = CC(=O)N(O)CCC[C@H](N)C(=O)O
# Experiments:
# PiaA [1] = target: T1, PiaA (Streptococcus pneumoniae, UniProt A0A0H2UPT5, W63A); assay: ITC; assay type: binding
# T1 construct: gene SP_1032; residues Asn23-Lys341, N-terminal 6×His-tag
# T1 sequence (A0A0H2UPT5 23-341 W63A): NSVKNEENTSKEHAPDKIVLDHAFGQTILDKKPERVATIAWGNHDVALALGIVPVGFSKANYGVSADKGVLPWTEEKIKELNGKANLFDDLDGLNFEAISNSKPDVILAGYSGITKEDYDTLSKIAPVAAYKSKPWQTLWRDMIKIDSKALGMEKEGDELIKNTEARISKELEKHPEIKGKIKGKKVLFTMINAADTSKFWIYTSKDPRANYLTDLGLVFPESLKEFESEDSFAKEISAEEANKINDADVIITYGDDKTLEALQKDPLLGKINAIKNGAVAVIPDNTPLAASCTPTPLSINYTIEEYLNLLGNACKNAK
# PiaA [2] = target: T2, PiaA (Streptococcus pneumoniae, UniProt A0A0H2UPT5); assay: ITC and crystal structure ([…] Å); assay type: binding
# T2 construct: gene SP_1032; residues Asn23-Lys341, N-terminal 6×His-tag
compound,measurement,setting,value
"CC(=O)N([O-])CCC[C@@H]1NC(=O)CNC(=O)CNC(=O)CNC(=O)[C@H](CCCN([O-])C(C)=O)NC(=O)[C@H](CCCN([O-])C(C)=O)NC1=O.[Fe+3] [ferrichrome] (cyclo(GGG[Orn(N5-OH,N5-Ac)][Orn(N5-OH,N5-Ac)][Orn(N5-OH,N5-Ac)]))",Kd,PiaA [1],~32.8 nM
same,Kd,PiaA [2],5.8 ± 1.4 nM
